Laboratory results: patent US20240390429A1, “METHOD AND FORMULATION FOR TREATING RESPIRATORY DISEASES” (ENTEROBIOME INC., priority 2019, published 2024)
Converted amounts (≈) assume the structure as drawn.

Tests used:
Format in all cases: cell-based
[1] = system: Bacteroides thetiotaomicron ATCC 29741; assay: MIC by broth microdilution (CLSI), QC strain
[2] = system: Akkermansia muciniphila ATCC BAA-835; assay: MIC by broth microdilution (CLSI), type strain; details: for Susceptibility category by MIC breakpoints: test strain ATCC BAA-835, breakpoints per antibiotic in c1-c3; for MIC: Akkermansia muciniphila, ATCCBAA835, test strain ATCC BAA-835, broth microdilution
[3] = system: Akkermansia muciniphila EB-AMDK19; assay: MIC by broth microdilution (CLSI), isolated strain; details: for Susceptibility category by MIC breakpoints: test strain EB-AMDK19, breakpoints per antibiotic in c1-c3; for MIC: Akkermansia muciniphila, EBAMDK19, test strain EB-AMDK19, broth microdilution

| Compound | MIC ([1]; QC strain ATCC 29741, broth microdilution) | Susceptibility category by MIC breakpoints [2] | Susceptibility category by MIC breakpoints [3] | MIC ([1]; Bacteroides, ATCC29741) [µg/mL] | MIC [2] [µg/mL] | MIC [3] [µg/mL] |
| --- | --- | --- | --- | --- | --- | --- |
| Piperacillin-tazobactam [PTZ] | 8/4 | (S) | (S) |  |  |  |
| C[C@@H](O)[C@H]1C(=O)N2C(C(=O)O)=C(S[C@@H]3CN[C@H](C(=O)N(C)C)C3)[C@H](C)[C@H]12 [MEM, meropenem] |  | (S) | (S) | 0.5 (≈ 1.3 µM) | 1 (≈ 2.61 µM) | 0.5 (≈ 1.3 µM) |
| O=C(N[C@H](CO)[C@H](O)c1ccc([N+](=O)[O-])cc1)C(Cl)Cl [CHL, chloramphenicol] |  | (S) | (S) | 8 (≈ 24.8 µM) | 4 (≈ 12.4 µM) | 4 (≈ 12.4 µM) |
| CO/N=C(\C(=O)N[C@@H]1C(=O)N2C(C(=O)O)=CCS[C@H]12)c1csc(N)n1 [CTZ, ceftizoxime] |  | (S) | (S) | 16 (≈ 41.7 µM) | 2 (≈ 5.22 µM) | 1 (≈ 2.61 µM) |
| CCC[C@@H]1C[C@@H](C(=O)N[C@@H]([C@H]2O[C@H](SC)[C@H](O)[C@@H](O)[C@H]2O)[C@H](C)Cl)N(C)C1 [CLI, clindamycin] |  | (S) | (I) |  | ≤ 0.125 | 4 (≈ 9.41 µM) |
| Cc1ncc([N+](=O)[O-])n1CCO [MTZ, metronidazole] |  | (S) | (S) | 2 (≈ 11.7 µM) | ≤ 0.25 | 0.5 (≈ 2.92 µM) |
| COc1c(N2C[C@@H]3CCCN[C@@H]3C2)c(F)cc2c(=O)c(C(=O)O)cn(C3CC3)c12 [MXF, moxifloxacin] |  | (R) | (R) | 8 (≈ 19.9 µM) | > 32 | > 32 |
